Results on 1 molecule are retold here after ChEMBL document CHEMBL5727528, “Benzenesulfonamide compounds, method for synthesizing same, and use thereof in medicine and cosmetics” (2020).

pIC50: −log10 of the molar value.

The experiment concerns the target T1, Interstitial collagenase (Homo sapiens, UniProt P03956).
T1 sequence (P03956 whole entry): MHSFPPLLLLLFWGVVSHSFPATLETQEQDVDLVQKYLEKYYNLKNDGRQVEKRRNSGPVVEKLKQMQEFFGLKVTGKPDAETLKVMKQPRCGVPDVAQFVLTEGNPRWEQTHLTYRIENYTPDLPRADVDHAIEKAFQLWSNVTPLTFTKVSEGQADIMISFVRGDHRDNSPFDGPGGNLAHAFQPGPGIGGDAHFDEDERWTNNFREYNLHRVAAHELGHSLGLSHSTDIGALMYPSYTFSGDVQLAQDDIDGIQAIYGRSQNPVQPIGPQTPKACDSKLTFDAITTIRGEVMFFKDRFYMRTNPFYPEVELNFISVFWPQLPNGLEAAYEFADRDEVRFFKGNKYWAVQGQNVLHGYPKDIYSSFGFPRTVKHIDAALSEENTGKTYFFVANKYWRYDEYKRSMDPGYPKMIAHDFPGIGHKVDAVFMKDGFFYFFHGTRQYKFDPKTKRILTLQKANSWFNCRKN

A word on the pIC50: it is the IC50 on a negative log10 scale, so that one unit is a factor of ten. A lower pIC50 goes with a high IC50. Regarding `COCCN(C1(C(=O)NO)CN(C(=O)C(C)C)C1)S(=O)(=O)c1ccc(OCc2cc(C)nc3ccccc23)cc1`, the pIC50 was < 5.00.
